Active and inactive are the calls of the source. How the calls were made is not given here.
Legend:
[1] = tested on: Vesicular stomatitis virus; assay: Antiviral activity against vesicular stomatitis virus; format: functional, organism-based
[2] = tested on: Human immunodeficiency virus 1; assay: Antiviral activity against HIV1; format: functional, organism-based
Reovirus sp. = assay: Antiviral activity against Reovirus; format: functional, organism-based
Vaccinia virus = assay: Antiviral activity against vaccinia virus; format: functional, organism-based; conditions: Orthopoxvirus vaccinia
[3] = Cytotoxicity against human MT4 cells after 96 hrs by MTT method; format: cell-based
Poliovirus 1 = assay: Antiviral activity against Human poliovirus 1 Sabin; format: functional
[4] = tested on: Bovine viral diarrhea virus 1; assay: Antiviral activity against BVDV NADL in MDBK cells assessed as protection from virus-induced cytopathogenicity by MTT method; format: functional, organism-based; conditions: Bovine viral diarrhea virus isolates and strains
Yellow fever virus = assay: Antiviral activity against YFV in BHK cells assessed as protection from virus-induced cytopathogenicity by MTT method; format: functional, organism-based
[5] = tested on: Respiratory syncytial virus; assay: Antiviral activity against RSV A2 in VERO76 cells assessed as reduction of plaque number by MTT method; format: functional, organism-based; conditions: human respiratory syncytial virus, A2, Vero 76

Compound | Activity [1] | Activity [2] | Activity (Reovirus sp.) | Activity (Vaccinia virus) | CC50 at 96 h [3] [µM] | Activity (Poliovirus 1) | EC50 [4] [µM] | EC50 (Yellow fever virus) [µM] | EC50 [5] [µM]
CCCOc1ccc2ccc(=O)oc2c1CN1CCN(C/C=C/c2ccccc2)CC1 | inactive | inactive | inactive | inactive | 16 | inactive | 15 | > 48 | > 100
Cc1[nH]c2ccccc2c1Cc1c(OC(=O)CCCC(=O)O)ccc2ccc(=O)oc12 | inactive | inactive | inactive | inactive | 27 | inactive | > 67 | > 100 | > 92
Cc1cc(=O)oc2c(CN3CCN(C)CC3)c(OC(=O)c3ccccc3)ccc12 | inactive | inactive | inactive | inactive | > 100 | inactive | > 100 | > 100 | > 100
Cc1cc(=O)oc2c(CN3CCN(C/C=C/c4ccccc4)CC3)c(OC(=O)c3ccccc3)ccc12 | inactive | inactive | inactive | inactive | 45 | inactive | 19 | > 100 | > 80
CCOC(=O)N1CCN(Cc2c(OC(=O)c3ccccc3)ccc3ccc(=O)oc23)CC1 | inactive | inactive | inactive | inactive | > 100 | inactive | > 100 | > 100 | 90
COc1ccc2c(=O)c(Cc3c(O)ccc4ccc(=O)oc34)c(N3CCCC3)oc2c1 | inactive | inactive | inactive | inactive | > 100 | inactive | > 100 | > 100 | > 100
CN(CC(=O)O)Cc1c(O)ccc2ccc(=O)oc12 | inactive | inactive | inactive | inactive | > 100 | inactive | > 100 | > 100 | > 100
CC(=O)Oc1ccc2ccc(=O)oc2c1Cc1c(-c2ccccc2)[nH]c2ccccc12 | inactive | inactive | inactive | inactive | > 100 | inactive | > 57 | > 100 | > 100
Cc1[nH]c2ccccc2c1Cc1c(OC(=O)CCCC(=O)O)ccc2c(C)cc(=O)oc12 | inactive | inactive | inactive | inactive | 29 | inactive | > 69 | > 64 | > 100
CCN(CC)c1oc2cc(OC)ccc2c(=O)c1Cc1c(O)ccc2c(C)cc(=O)oc12 | inactive | inactive | inactive | inactive | > 100 | inactive | > 100 | > 100 | > 100
O=c1ccc2ccc(O)c(CN3CCOCC3)c2o1 | inactive | inactive | inactive | inactive | > 100 | inactive | > 100 | > 100 | > 100
COc1ccc2c(=O)c(Cc3c(OC(C)=O)ccc4c(C)cc(=O)oc34)c(N(C)C)oc2c1 | inactive | inactive | inactive | inactive | 42 | inactive | > 28 | > 100 | 25
CCC(=O)Oc1ccc2c(C)cc(=O)oc2c1Cc1c(C)[nH]c2ccccc12 | inactive | inactive | inactive | inactive | 31 | inactive | > 87 | > 100 | 45
O=C(Oc1ccc2ccc(=O)oc2c1CN1CCN(Cc2ccc3c(c2)OCO3)CC1)c1ccccc1 | inactive | inactive | inactive | inactive | 74 | inactive | 77 | > 100 | 85
CCCOc1ccc2c(C)cc(=O)oc2c1CN1CCCCC1 | inactive | inactive | inactive | inactive | > 100 | inactive | 38 | > 100 | > 100
CC(=O)Oc1ccc2c(C)cc(=O)oc2c1Cc1c(N(C)C)oc2ccc3ccccc3c2c1=O | inactive | inactive | inactive | inactive | > 100 | inactive | > 100 | > 100 | > 13
COc1ccc2c(=O)c(Cc3c(O)ccc4c(C)cc(=O)oc34)c(N3CCCC3)oc2c1 | inactive | inactive | inactive | inactive | > 100 | inactive | > 100 | > 100 | > 100
CCC(=O)Oc1ccc2ccc(=O)oc2c1Cc1c(C)[nH]c2ccccc12 | inactive | inactive | inactive | inactive | 80 | inactive | > 51 | > 100 | > 100
CC(=O)c1ccc(N2CCN(Cc3c(O)ccc4ccc(=O)oc34)CC2)cc1 | inactive | inactive | inactive | inactive | 18 | inactive | > 100 | > 100 | > 100
CCN(CC)c1oc2ccc3ccccc3c2c(=O)c1Cc1c(OC(C)=O)ccc2ccc(=O)oc12 | inactive | inactive | inactive | inactive | > 100 | inactive | > 100 | > 100 | > 100
Cc1cc(=O)oc2c(CN3CCOCC3)c(O)ccc12 | inactive | inactive | inactive | inactive | > 100 | inactive | > 100 | > 100 | > 100
